What was measured:
DIGSA [1] = test: Pre-emergence action against DIGSA, 1280 g/ha; assay type: in vivo, Digitaria sanguinalis; conditions: visual scoring after about 3 weeks vs untreated controls, 100% = plants have died, 0% = like control plants
Method in brief: (§1)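 Compound applied as WP or EC in aqueous spray (0.5% additive, 600 L/ha) to the surface of sandy loam covering freshly sown seeds. After about 3 weeks under good greenhouse conditions, damage is given as visual percentage, 100% meaning plant death.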

POLCO = test: Pre-emergence action at 320 g/ha against POLCO; assay type: in vivo, Fallopia convolvulus (Polygonum convolvulus); conditions: visual scoring after about 3 weeks vs untreated controls
Method in brief: (§2)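 Compounds were sprayed onto soil over sown seeds as emulsions or suspensions with 0.5% additive at a water rate of 600 l/ha. After about 3 weeks in the greenhouse, effect was rated visually as percent (100% = died).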

KCHSC [2] = test: Pre-emergence action against KCHSC, 1280 g/ha; assay type: in vivo, Bassia scoparia; conditions: scored visually after about 3 weeks vs untreated controls (100% = plants have died)
Method in brief: as §1

SETVI [3] = test: Pre-emergence action at 320 g/ha against SETVI; assay type: in vivo, Setaria viridis; conditions: visual scoring after about 3 weeks vs untreated controls
Method in brief: as §2

KCHSC [4] = test: Post-emergence action against KCHSC, 1.28 kg/ha; assay type: in vivo, Bassia scoparia; conditions: dosage 1280 g/ha, visual rating about 3 weeks after treatment vs untreated controls (100% = plants died)
Method in brief: (§3)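 Weeds grown in sandy loam in a greenhouse were sprayed at the one-leaf stage, 2–3 weeks after sowing, with WP or EC formulations in water containing 0.5% additive at 600 L/ha. About 3 weeks later, damage was scored visually versus untreated controls (0% = like control, 100% = dead).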

STEME = test: Pre-emergence action against STEME, 1280 g/ha; assay type: in vivo, Stellaria media; conditions: scored visually after about 3 weeks vs untreated controls (100% = plants have died)
Method in brief: as §1

ABUTH [5] = test: Post-emergence action against ABUTH, 1.28 kg/ha; assay type: in vivo, Abutilon theophrasti; conditions: dosage 1280 g/ha, visual rating about 3 weeks after treatment vs untreated controls (100% = plants died)
Method in brief: as §3

AMARE [6] = test: Post-emergence action against AMARE, 1.28 kg/ha; assay type: in vivo, Amaranthus retroflexus; conditions: dosage 1280 g/ha, visual rating about 3 weeks after treatment vs untreated controls (100% = plants died)
Method in brief: as §3

VERPE [7] = test: Post-emergence action against VERPE, 1.28 kg/ha; assay type: in vivo, Veronica persica; conditions: dosage 1280 g/ha, visual rating about 3 weeks after treatment vs untreated controls (100% = plants died)
Method in brief: as §3

AVEFA = test: Pre-emergence action at 320 g/ha against AVEFA; assay type: in vivo; conditions: visual scoring after about 3 weeks vs untreated controls
From the text: (§4) b) Seeds of monocotyledonous and dicotyledonous weed plants and crop plants are placed in plastic or organic planting pots and covered with soil. The compounds of the invention, formulated in the form of wettable powders (WP) or as emulsion concentrates (EC), are then applied onto the surface of the covering soil as aqueous suspension or emulsion with addition of 0.5% additive at a water application rate of 600 l/ha (converted). After the treatment, the pots are placed in a greenhouse and kept under good growth conditions for the trial plants. After about 3 weeks, the effect of the preparations is scored visually in comparison with untreated controls as percentages. For example, 100% activity=the plants have died, 0% activity=like control plants. Tables 13 to 26 below show the effects of selected compounds of the general formula (I) on various harmful plants and at an application rate corresponding to 320 g/ha, which were obtained by the experimental procedure mentioned above.

MATIN [8] = test: Pre-emergence action against MATIN, 1280 g/ha; assay type: in vivo, Tripleurospermum inodorum (Matricaria inodora); conditions: scored visually after about 3 weeks vs untreated controls (100% = plants have died)
Method in brief: as §1

ECHCG [9] = test: Pre-emergence action against ECHCG, 1280 g/ha; assay type: in vivo, Echinochloa crus-galli; conditions: visual scoring after about 3 weeks vs untreated controls, 100% = plants have died, 0% = like control plants
Method in brief: as §1

LOLRI [10] = test: Post-emergence action against LOLRI, 1.28 kg/ha; assay type: in vivo, Lolium rigidum; conditions: dosage 1280 g/ha, visual rating about 3 weeks after treatment vs untreated controls
Method in brief: as §3

POAAN [11] = test: Post-emergence action against POAAN, 1.28 kg/ha; assay type: in vivo, Poa annua; conditions: dosage 1280 g/ha, visual rating about 3 weeks after treatment vs untreated controls
Method in brief: as §3

ECHGC = test: Pre-emergence action at 320 g/ha against ECHGC; assay type: in vivo, Echinochloa crus-galli; conditions: visual scoring after about 3 weeks vs untreated controls
From the text: as §4

MATIN [12] = test: Post-emergence action against MATIN, 1.28 kg/ha; assay type: in vivo, Tripleurospermum inodorum (Matricaria inodora); conditions: dosage 1280 g/ha, visual rating about 3 weeks after treatment vs untreated controls (100% = plants died)
Method in brief: as §3

AMARE [13] = test: Pre-emergence action at 320 g/ha against AMARE; assay type: in vivo, Amaranthus retroflexus; conditions: visual scoring after about 3 weeks vs untreated controls
Method in brief: as §2

ALOMY [14] = test: Pre-emergence action at 320 g/ha against ALOMY; assay type: in vivo, Alopecurus myosuroides; conditions: scored visually after about 3 weeks vs untreated controls (100% = plants have died)
Method in brief: as §2

POAAN [15] = test: Pre-emergence action against POAAN, 1280 g/ha; assay type: in vivo, Poa annua; conditions: visual scoring after about 3 weeks vs untreated controls, 100% = plants have died, 0% = like control plants
Method in brief: as §1

ALOMY [16] = test: Post-emergence action against ALOMY, 1.28 kg/ha; assay type: in vivo, Alopecurus myosuroides; conditions: dosage 1280 g/ha, visual rating about 3 weeks after treatment vs untreated controls
Method in brief: as §3

MATIN [17] = test: Pre-emergence action at 320 g/ha against MATIN; assay type: in vivo, Tripleurospermum inodorum (Matricaria inodora); conditions: visual scoring after about 3 weeks vs untreated controls
Method in brief: as §2

SETVI [18] = test: Pre-emergence action against SETVI, 1280 g/ha; assay type: in vivo, Setaria viridis; conditions: visual scoring after about 3 weeks vs untreated controls, 100% = plants have died, 0% = like control plants
Method in brief: as §1

VIOTR = test: Pre-emergence action at 320 g/ha against VIOTR; assay type: in vivo, Viola tricolor; conditions: dosage 320 g/ha
Method in brief: as §2

ECHCG [19] = test: Post-emergence action against ECHCG, 1.28 kg/ha; assay type: in vivo, Echinochloa crus-galli; conditions: dosage 1280 g/ha, visual rating about 3 weeks after treatment vs untreated controls
Method in brief: as §3

LOLRI [20] = test: Pre-emergence action against LOLRI, 1280 g/ha; assay type: in vivo, Lolium rigidum; conditions: visual scoring after about 3 weeks vs untreated controls, 100% = plants have died, 0% = like control plants
Method in brief: as §1

AMARE [21] = test: Pre-emergence action against AMARE, 1280 g/ha; assay type: in vivo, Amaranthus retroflexus; conditions: scored visually after about 3 weeks vs untreated controls (100% = plants have died)
Method in brief: as §1

VERPE [22] = test: Pre-emergence action at 320 g/ha against VERPE; assay type: in vivo, Veronica persica; conditions: visual scoring after about 3 weeks vs untreated controls
Method in brief: as §2

SETVI [23] = test: Post-emergence action against SETVI, 1.28 kg/ha; assay type: in vivo, Setaria viridis; conditions: dosage 1280 g/ha, visual rating about 3 weeks after treatment vs untreated controls
Method in brief: as §3

LOLRI [24] = test: Pre-emergence action at 320 g/ha against LOLRI; assay type: in vivo, Lolium rigidum; conditions: visual scoring after about 3 weeks vs untreated controls
Method in brief: as §2

DIGSA [25] = test: Post-emergence action against DIGSA, 1.28 kg/ha; assay type: in vivo, Digitaria sanguinalis; conditions: dosage 1280 g/ha, visual rating about 3 weeks after treatment vs untreated controls
Method in brief: as §3

ALOMY [26] = test: Pre-emergence action against ALOMY, 1280 g/ha; assay type: in vivo, Alopecurus myosuroides; conditions: visual scoring after about 3 weeks vs untreated controls, 100% = plants have died, 0% = like control plants
Method in brief: as §1

VERPE [27] = test: Pre-emergence action against VERPE, 1280 g/ha; assay type: in vivo, Veronica persica; conditions: scored visually after about 3 weeks vs untreated controls (100% = plants have died)
Method in brief: as §1

ABUTH [28] = test: Pre-emergence action against ABUTH, 1280 g/ha; assay type: in vivo, Abutilon theophrasti; conditions: scored visually after about 3 weeks vs untreated controls (100% = plants have died)
From the text: 1. Pre-Emergence Herbicidal Effect and Crop Plant Compatibility a) Seeds of mono- and dicotyledonous weed plants are placed in plastic pots in sandy loam soil (doubly sown with one species each of mono- or dicotyledonous weed plants per pot) and covered with soil. The compounds of the invention, formulated in the form of wettable powders (WP) or as emulsion concentrates (EC), are then applied onto the surface of the covering soil as aqueous suspension or emulsion with addition of 0.5% additive at a water application rate equivalent to 600 litres per hectare. After the treatment, the pots are placed in a greenhouse and kept under good growth conditions for the trial plants. After about 3 weeks, the effect of the preparations is scored visually in comparison with untreated controls as percentages. For example, 100% activity=the plants have died, 0% activity=like control plants. 1. Pre-Emergence Effectiveness Tables 1 to 12 below show the effects of selected compounds of the general formula (I) according to Tables 1 and 2 on various harmful plants and at an application rate corresponding to 1280 g/ha, which were obtained by the experimental procedure mentioned above.

| SMILES | Pre-emergence action against DIGSA (DIGSA [1]) [%] | Pre-emergence action against STEME (STEME) [%] | Post-emergence action against VERPE (VERPE [7]) [%] | Pre-emergence action against MATIN (MATIN [8]) [%] | Pre-emergence action against ECHCG (ECHCG [9]) [%] | Post-emergence action against POAAN (POAAN [11]) [%] | Pre-emergence action against POAAN (POAAN [15]) [%] | Pre-emergence action against SETVI (SETVI [18]) [%] | Post-emergence action against ECHCG (ECHCG [19]) [%] | Pre-emergence action against AMARE (AMARE [21]) [%] | Pre-emergence action against ALOMY (ALOMY [26]) [%] | Pre-emergence action against VERPE (VERPE [27]) [%] | also measured |
| --- | --- | --- | --- | --- | --- | --- | --- | --- | --- | --- | --- | --- | --- |
| O=C(O)CNC(=O)COc1nn(-c2ccccc2F)c(-c2ccc(F)nc2)c1Br [Example X-021-a] | 100 | 100 | 100 | 100 | 100 | 100 | 100 | 100 | 100 | 100 | 100 | 100 | Pre-emergence action against POLCO in % (POLCO): 100%; Pre-emergence action against KCHSC (KCHSC [2]): 90%; Pre-emergence action against SETVI in % (SETVI [3]): 100%; Post-emergence action against KCHSC (KCHSC [4]): 100%; Post-emergence action against ABUTH (ABUTH [5]): 100%; Post-emergence action against AMARE (AMARE [6]): 100%; Pre-emergence action against AVEFA in % (AVEFA): 100%; Post-emergence action against LOLRI (LOLRI [10]): 100%; Pre-emergence action against ECHGC in % (ECHGC): 100%; Post-emergence action against MATIN (MATIN [12]): 90%; Pre-emergence action against AMARE in % (AMARE [13]): 100%; Pre-emergence action at 320 g/ha against ALOMY in % (ALOMY [14]): 100%; Post-emergence action against ALOMY (ALOMY [16]): 100%; Pre-emergence action against MATIN in % (MATIN [17]): 90%; Pre-emergence action against VIOTR in % (VIOTR): 100%; Pre-emergence action against LOLRI (LOLRI [20]): 100%; Pre-emergence action against VERPE in % (VERPE [22]): 100%; Post-emergence action against SETVI (SETVI [23]): 100%; Pre-emergence action against LOLRI in % (LOLRI [24]): 100%; Post-emergence action against DIGSA (DIGSA [25]): 100% |
| CN(C)C(=O)COc1nn(-c2ccccc2F)c(-c2ccc(F)nc2)c1Br [Example X-027] | 100 | 90 | 100 | 90 | 100 | 100 | 100 | 100 | 90 | 100 | 100 | 100 | Pre-emergence action against ABUTH (ABUTH [28]): 90% |
